# Experimental data as given in patent publication US8071540B2, “Virus derived antimicrobial peptides” (priority 2007, dated 2011).
# Where no end group is shown, it is not given here.
# Legend:
# [1] = test system: Pseudomonas aeruginosa; assay: Bacterial lysis (broth dilution) assay, MBC; format: cell-based; design: MBC, Psuedomonas aeruginosa, 0 mM NaCl / MBC, Psuedomonas aeruginosa, 150 mM NaCl: unit not given here; conditions: 99.9% killing
# [2] = test system: Staphylococcus aureus; assay: Bacterial lysis (broth dilution) assay, MBC; format: cell-based; conditions: 99.9% killing
# Source text: The assays for growth inhibition of a microbial target can be used to derive a minimum bactericidal concentration (MBC) value for the peptide, i.e., the concentration of peptide required to kill 99.9% (3-log decrease) of the microbial sample being tested. This value is well known to those in the art as representative of the effectiveness of a particular antimicrobial agent (e.g., an antibiotic) against a particular organism or group of organisms. In assays to detect the MBC of a peptide, growth inhibition of a bacterial population also can be measured with reference to the number of colony forming units (cfu) after exposure to a peptide relative to a control experiment without a peptide.
# Bacterial lysis assay. Bacterial lysis assays were conducted in a manner similar to that described previously (Lehrer, R. I., M. E. Selsted, D. Szklarek, and F. J. 1983. Infect. Immun. 42: 10-4, 1983; Miller, M. A., R. F. Garry, J. M. Jaynes, and R. C. Montelaro, AIDS Res Hum Retroviruses 7:511-519, 1991). Bacterial suspensions were cultured in Luria-Bertani Broth to mid-log growth phase and washed by two cycles of centrifugation and suspension in 10 mM phosphate buffer. The Abs600 of the suspension was adjusted with 10 mM phosphate buffer such that, upon dilution, 5-10×10^5 cfu/mL would be treated in the assay. Bacteria were incubated for 1 h with two-fold dilutions of peptides (100 μM to 100 nM) in 96-well plates using 10 mM phosphate buffer, pH 7.2, as a diluent. Ten-fold dilutions of bacteria were performed to 1:1 000; a 100 μl aliquot from each condition was spread on the surface of tryptic soy agar plates (Difco, Detroit, Mich.) which were incubated overnight. Colonies of surviving bacteria (cfu, colony-forming units) were counted and compared to untreated controls to determine the amount of peptide-induced killing under each condition. Log killing is defined as the log of the ratio of cfu present before and after treatment with peptide. The minimal bactericidal concentration, MBC, is the peptide concentration at which 99.9% (three log) killing is achieved (Pearson et al., Antimicrob. Agents Chemother. 18: 699-708, 1980).
# Results. Representative gram positive (S. aureus) and gram negative (P. aeruginosa) clinical isolates were used as the index bacteria to survey the peptides described herein.
# A limitation of many host-derived antimicrobial peptides is their decreased activity at physiologic (150 mM) NaCl concentration. See Friedrich et al., Antimicrobial Agents and Chemotherapy 43:1542-1548. The peptides WLSA-5 (SEQ ID NO: 3) and LL37 were tested against the two index strains at physiologic NaCl. […] The activity of antimicrobial peptides described herein were compared to an expanded list of clinical bacterial isolates. These are summarized in Table 2 by comparing their MBCs in phosphate buffer alone (low salt) and phosphate buffer containing 150 mM NaCl (physiologic conditions). Inspection of this table would lead one skilled in the art to conclude that the activity of antimicrobial peptides described herein compare favorably to the host derived antimicrobial peptides as it relates to the spectrum and potency of antimicrobial activity.
# [3] = test system: Methicillin Resistant S. aureus; format: cell-based, Staphylococcus aureus; design: unit not given here; conditions: 99.9% killing
# [4] = test system: Indonesia H5N1; format: cell-based, influenza virus; conditions: eleven two-fold serial dilutions from 50 μM, FIG. 24
# [5] = test system: Indonesia H5N1; format: in vivo, mice; conditions: peptide added to virus just prior to intranasal dose, FIG. 25
# [6] = test system: vaccine strain of B. anthracis; format: cell-based, Bacillus anthracis; conditions: FIG. 26
# [7] = test system: C. krusei
# [8] = test system: C. tropicalis
# [9] = test system: P. aeruginosa; conditions: intravenous administration; cited from earlier work
# [10] = test system: P. aeruginosa and primary human skin fibroblasts; conditions: co-culture; cited from earlier work
# [11] = test system: C. albicans; assay: In vitro fungal killing assay; conditions: 6 μM, RPMI 1640, 37° C.; reference strain SC5314 and all clinical isolates
# [12] = test system: C. lusitaniae; assay: In vitro fungal killing assay; conditions: 6 μM, RPMI 1640, 37° C.; all isolates
# [13] = test system: Cryptococcocus neoformans; assay: In vitro fungal killing assay; conditions: 3 isolates
# [14] = test system: Aspergillus fumigatus; assay: In vitro fungal killing assay; conditions: 2 isolates
# [15] = 0 mM NaCl (10 mM phosphate buffer)
sequence,measurement,setting,value
"RRWVRRVRRVWRRVVRVVRRWVRR [WLBU-2, RRWVRRVRRVWRRVVRVVRRWVRR]","MBC, Psuedomonas aeruginosa, 0 mM NaCl",[1]; [15],200
same,"MBC, Psuedomonas aeruginosa, 150 mM NaCl",[1]; 150 mM NaCl (physiologic),100
same,"MBC, Staphylococcus aureus, 0 mM NaCl",[2]; [15],1 µM
same,"MBC, Staphylococcus aureus, 150 mM NaCl",[2]; 150 mM NaCl (physiologic),0.6 µM
same,"MBC, Methicillin Resistant S. aureus, 0 mM NaCl",[3]; [15],200
same,"MBC, Methicillin Resistant S. aureus, 150 mM NaCl",[3]; 150 mM NaCl (physiologic),100
same,infectious virus plaque formation,[4],dose-dependent decrease in infectious virus plaque formation
same,infectivity of virus in mice,[5],inactivate the infectivity of virus
same,inhibition of vegetative form,[6],inhibit the vegetative form of B. anthracis
same,"concentration that completely killed 75% of the isolates, C. krusei","[7]; RPMI 1640, 37° C.",3 µM
same,"concentration that completely killed the remaining isolates, C. krusei","[7]; RPMI 1640, 37° C.",25 µM
same,"minimum fungicidal concentration (MFC, >99.9% kill), C. krusei",[7]; remaining isolates,≤ 6 µM
same,"concentration that completely killed 75% of the isolates, C. tropicalis","[8]; RPMI 1640, 37° C.",3 µM
same,"concentration that completely killed the remaining isolates, C. tropicalis","[8]; RPMI 1640, 37° C.",25 µM
same,"minimum fungicidal concentration (MFC, >99.9% kill), C. tropicalis",[8]; remaining isolates,≤ 6 µM
same,protection in murine model,[9],protection against a lethal challenge of P. aeruginosa
same,antibacterial selectivity,[10],highest antibacterial selectivity of all peptides evaluated
same,"time to fully fungicidal effect, C. albicans",[11],≤ 5 min
same,"time to fully fungicidal effect, C. lusitaniae",[12],≤ 5 min
same,concentration that completely killed C. neoformans,[13],3 µM
same,concentration to which A. fumigatus isolates were resistant,[14],> 100 µM
